From article PMC7563317, “Development of a Cationic Amphiphilic Helical Peptidomimetic (B18L) As A Novel Anti-Cancer Drug Lead” (Cancers, 2020)
Where two headings read alike, the source gives them in different places. Values belong to the molecule of their own block, whether it stands above or below them. Residues, ends and D or L forms follow the SMILES beside them.

Key:
MCF7-G11-TR5 = conditions: 24 h
Protocol: (§1) Cells were plated at 5000 cells/well (cancer cells) or 10,000 cells/well (PBMCs) in a 96-well plate and allowed to attach for 24 h. Cells were then treated with various concentrations of compounds for the times indicated in the different figures. At each time point, the viability of cells was measured using MTT assay. In brief, each well was treated with 20 µL of MTT reagent (5 mg/mL in 1x DPBS) and incubated at 37 °C for 3 h. After 3 h, 100 µL of MTT solvent (90% Isopropanol, 10% Triton X-and 0.4% 1M HCl) was added to each well and the plate was covered from light while shaking for 20 min. The absorbance of solubilized MTT reagent was measured using spectrophotometer at 590 nm. In some experiments with PBMCs, the ATP assay was used to assess cell viability by following manufacture’s instruction. […] Cells were then incubated at 37 °C for the indicated time points on the figure and then treated with equivalent volume of CellTiter-Glo reagent. The plate was rocked for 10 min and luminescence intensity was read using spectrophotometer.

MCF7 = conditions: 24 h
Protocol: as §1

T47D = conditions: 24 h
Protocol: as §1

SKBR3 = conditions: 24 h
Protocol: as §1

MCF7-G11-TR1 = conditions: 24 h
Protocol: as §1

MDA-MB-231 = conditions: 24 h
Protocol: as §1

MDA-MB-468 = conditions: 24 h
Protocol: as §1

ZR-75-1 = conditions: 24 h
Protocol: as §1

MCF-10a = conditions: 24 h
Protocol: as §1

PBMCs = conditions: 24 h
Protocol: as §1

[1] = test system: recombinant BST-2 (rBST-2); assay: UV absorbance (230 nm) centrifugal filter binding assay; conditions: 2 mg/mL B18L, 1 mg/mL rBST-2, 37 °C 45 min, 3000 NMWL filter, 13,000 rpm 1 h, UV 230 nm
Protocol: To validate the MD simulation data, we used UV absorbance based assay to assess the binding affinity of B18L to BST-2 (B18L•BST-2). Following incubation of B18L with rBST-2 or controls (B18L alone and rBST-2 alone) at 37 °C for 45 min, each compound or the B18L•BST-2 mixture was placed in centrifugal filters and spun at 13,000 rpm for 1 h (Figure 2I). Absorbance of compounds (i) prior to addition to the filter (input), (ii) on the apical side of the filter (retained), (iii) in the collection tube (flow through) were obtained and converted to compound concentration using the standard curves (Figure 2J).
B18L (MW = 1.683 kDa), the rBST-2 (MW = 5.832 kDa) and the mixture of B18L and rBST-2 (B18L•BST-2) were titrated with UV spectroscopy at 230 nm to obtain the standard curve. 2 mg/mL of B18L and 1 mg/mL of rBST-2 were preincubated at 37 °C for 45 min. 200 μL mixture was then subjected to the ultracentrifuge tube with 3000 NMWL filter and centrifuged at 13,000 rpm for 1 h. Absorbance of the compounds i) before spin designated as input, ii) compounds left on the apical side of the membrane designated as retained and iii) compounds in the basal side of the tube designated as the flow through were measured with UV spectroscopy. The standard curve was used to extrapolate protein concentrations from the absorbance measurements.

IC50 (MCF7-G11-TR5): 16.1 ± 4.9 µM | IC50 (MCF7): 16 ± 1.6 µM | IC50 (T47D): > 148 µM | IC50 (SKBR3): 18.1 ± 4.7 µM | IC50 (MCF7-G11-TR1): 10.8 ± 2 µM | IC50 (MDA-MB-231): 18.6 ± 2.4 µM | IC50 (MDA-MB-468): 16.6 ± 1.5 µM | IC50 (ZR-75-1): 10.1 ± 1.8 µM
Molecule: CC[C@H](C)[C@H](NC(=O)CN)C(=O)NCC(=O)N[C@@H](CCCCN)C(=O)N[C@@H](C)C(=O)N[C@H](C(=O)N[C@@H](C)C(=O)N[C@@H](CCCCN)C(=O)N[C@@H](C)C(=O)N[C@H](C(=O)N[C@@H](C)C(=O)N[C@@H](CS)C(=O)N[C@H](C(=O)N[C@@H](C)C(=O)N[C@@H](CCCCN)C(=O)N[C@@H](C)C(=O)N[C@H](C(=O)N[C@@H](C)C(=O)O)[C@@H](C)CC)[C@@H](C)CC)[C@@H](C)CC)[C@@H](C)CC [B18I] (H-GIGKAIAKAIACIAKAIA-OH)

IC50 (MCF7-G11-TR5): 56.4 ± 5 µM | IC50 (MCF7): 61.8 ± 3.9 µM | IC50 (T47D): 78.5 ± 20.9 µM | IC50 (SKBR3): 43.5 ± 11.5 µM | IC50 (MCF7-G11-TR1): 61.8 ± 5.1 µM | IC50 (MDA-MB-231): 83.7 ± 20.1 µM | IC50 (MDA-MB-468): 136 ± 9.3 µM | IC50 (ZR-75-1): 58.9 ± 2 µM
Molecule: CC(C)C[C@H](NC(=O)[C@H](C)NC(=O)[C@H](CCCCN)NC(=O)[C@H](C)NC(=O)[C@H](CC(C)C)NC(=O)[C@H](CS)NC(=O)[C@H](C)NC(=O)[C@H](CC(C)C)NC(=O)[C@H](C)NC(=O)[C@H](CCCCN)NC(=O)[C@H](C)NC(=O)[C@H](CCCCN)NC(=O)[C@H](C)NC(=O)[C@H](CCCCN)NC(=O)[C@H](CCC(N)=O)NC(=O)[C@H](Cc1ccccc1)NC(=O)CN)C(=O)N[C@@H](C)C(=O)O [B18KA] (H-GFQKAKAKALACLAKALA-OH)

IC50 (MCF7-G11-TR5): > 128 µM | IC50 (MCF7): > 128 µM | IC50 (T47D): > 128 µM | IC50 (SKBR3): > 128 µM | IC50 (MCF7-G11-TR1): > 128 µM | IC50 (MDA-MB-231): > 128 µM | IC50 (MDA-MB-468): > 128 µM | IC50 (ZR-75-1): > 128 µM
Molecule: CSCC[C@H](NC(=O)[C@@H](NC(=O)[C@@H](NC(=O)[C@H](Cc1c[nH]cn1)NC(=O)[C@H](CC(C)C)NC(=O)[C@H](CS)NC(=O)[C@@H](NC(=O)[C@H](CC(C)C)NC(=O)[C@H](C)NC(=O)[C@H](CCC(N)=O)NC(=O)[C@H](C)NC(=O)[C@H](CCCCN)NC(=O)[C@@H](NC(=O)[C@H](CCCCN)NC(=O)[C@H](CCC(N)=O)NC(=O)[C@H](Cc1ccccc1)NC(=O)CN)C(C)C)[C@@H](C)O)[C@@H](C)O)C(C)C)C(=O)N[C@@H](C)C(=O)O [B18KL] (H-GFQKVKAQALTCLHTVMA-OH; N-terminus and C-terminus assumed)

IC50 (MCF7-G11-TR5): > 131 µM | IC50 (MCF7; MCF7 (drug-sensitive), MTT): > 131 µM | IC50 (T47D): > 131 µM | IC50 (MCF7-G11-TR1): > 131 µM | IC50 (MDA-MB-231): > 131 µM | IC50 (MDA-MB-468; MDA-MB-468 (Basal A), MTT): > 131 µM | IC50 (ZR-75-1): > 131 µM
Molecule: CSCC[C@H](NC(=O)[C@@H](NC(=O)[C@@H](NC(=O)[C@H](Cc1c[nH]cn1)NC(=O)[C@H](CC(N)=O)NC(=O)[C@H](CS)NC(=O)[C@@H](NC(=O)[C@H](C)NC(=O)[C@H](C)NC(=O)[C@H](CCC(N)=O)NC(=O)[C@H](C)NC(=O)[C@H](CCCCN)NC(=O)[C@@H](NC(=O)[C@H](CCCCN)NC(=O)[C@H](CCC(N)=O)NC(=O)[C@H](Cc1ccccc1)NC(=O)CN)C(C)C)[C@@H](C)O)[C@@H](C)O)C(C)C)C(=O)N[C@@H](C)C(=O)O [B18K] (H-GFQKVKAQAATCNHTVMA-OH; N-terminus and C-terminus assumed)

IC50 (MCF7-G11-TR5): 3.8 ± 0.3 µM | IC50 (MCF7): 5.9 ± 0.5 µM | IC50 (T47D): 17.5 ± 6.5 µM | IC50 (SKBR3): 7.2 ± 1 µM | IC50 (MCF7-G11-TR1): 6.2 ± 0.8 µM | IC50 (MDA-MB-231): 7.2 ± 0.8 µM | IC50 (MDA-MB-468): 12.4 ± 1.4 µM | IC50 (ZR-75-1): 5.2 ± 1 µM
Molecule: CC(C)C[C@H](NC(=O)CN)C(=O)NCC(=O)N[C@@H](CCCCN)C(=O)N[C@@H](C)C(=O)N[C@@H](CC(C)C)C(=O)N[C@@H](C)C(=O)N[C@@H](CCCCN)C(=O)N[C@@H](C)C(=O)N[C@@H](CC(C)C)C(=O)N[C@@H](C)C(=O)N[C@@H](CS)C(=O)N[C@@H](CC(C)C)C(=O)N[C@@H](C)C(=O)N[C@@H](CCCCN)C(=O)N[C@@H](C)C(=O)N[C@@H](CC(C)C)C(=O)N[C@@H](C)C(=O)O [B18L] (H-GLGKALAKALACLAKALA-OH)
IC50 (MCF-10a): 17.2 ± 6.4 µM | IC50 (PBMCs): 39.8 ± 3.8 µM

in the flow-through [1]: 21% | retained on the apical side of the filter [1]: 78%
B1: BST-2: recombinant BST-2 (MW = 5.832 kDa), extracellular domain, binding partner and control (protein, UniProt Q10589 49-161, looked up)
extracellular domain: NSEACRDGLRAVMECRNVTHLLQQELTEAQKGFQDVEAQAATCNHTVMALMASLDAEKAQGQKKVEELEGEITTLNHKLQDASAEVERLRRENQVLSVRIADKKYYPSSQDSS
modifications: extracellular domain
